# Columns and labels:
# [1] = molecular target: T1, CDC2L5 (Homo sapiens, UniProt Q14004); assay: KINOMEscan; assay type: binding; details: read-out: Percent Control
# T1 construct: purchased DiscoverX
# [2] = molecular target: T2, PFPK5(P. falciparum) (Plasmodium falciparum, UniProt P61075); assay: KINOMEscan; assay type: binding; details: read-out: Percent Control
# T2 construct: purchased DiscoverX
# [3] = test system: ERK; assay: ERK phosphorylation in OVCAR3 and MCF7 cells, immunoblot; assay type: cell-based; details: 10 nM, 24 hours
# Description: FIG. 3A is a series of Western blots showing OVCAR3 and MCF7 cells that were treated for 24 hours with DMSO, 10 nM BJG-05-039, or NVS-PAK1-1 as indicated. MEK and ERK phosphorylation was assessed by immunoblot with the indicated phosphorylation-specific antibodies. FIG. 3B is a Western blot showing MCF7 cells that were stably transduced with a doxycycline-regulated shRNA against PAK1. shRNA expression was induced by the indicated amounts of doxycycline and immunoblots were performed using cell lysates 24 hours post doxycycline addition. FIG. 3C is a Western blot showing MCF7 cells that were treated with vehicle or […] doxycycline. Immunoblots were performed using cell lysates 24 hours post doxycycline addition.
# Cells were washed once in PBS and lysed in RIPA buffer (50 mM Tris-HCl, 150 mM NaCl, 0.25% (w/v) sodium deoxycholate, 1% (w/v) NP-40, pH 7.5) containing protease inhibitor cocktail (Roche) and phosphatase inhibitor cocktail (Roche) for 30 minutes on ice. […]
# In certain cell lines, PAK1 has well-characterized functions in regulating proliferative signaling. […] As a readout for anti-PAK activity, phosphorylation of MEK1 at S298 was assessed, a direct target site for Group A PAKs (Coles, et al. (2002) Oncogene 21:2236-2244; Slack-Davis, et al. (2003) J. Cell. Biol., 162:281-291), as well as phosphorylation of the downstream target of MEK, ERK. […]
# [4] = molecular target: MAPKAPK2 (Homo sapiens, UniProt P49137); assay: KINOMEscan; details: read-out: Percent Control
# Description: (§1) The kinase engagement assay (KINOMEscan®) was performed by DiscoverX assessing binding abilities toward a set of kinases.
# [5] = molecular target: MYO3A (Homo sapiens, UniProt Q8NEV4); assay: KINOMEscan; details: read-out: Percent Control
# Description: as §1
# [6] = molecular target: MET (Homo sapiens, UniProt P08581); assay: KINOMEscan; details: read-out: Percent Control
# Description: as §1
# [7] = molecular target: ACVRL1 (Homo sapiens, UniProt P37023); assay: KINOMEscan; details: read-out: Percent Control
# Description: as §1
# [8] = molecular target: NEK1 (Homo sapiens, UniProt Q96PY6); assay: KINOMEscan; details: read-out: Percent Control
# Description: as §1
# [9] = molecular target: HCK (Homo sapiens, UniProt P08631); assay: KINOMEscan; details: read-out: Percent Control
# Description: as §1
# [10] = molecular target: ITK (Homo sapiens, UniProt Q08881); assay: KINOMEscan; details: read-out: Percent Control
# Description: as §1
# [11] = molecular target: SLK (Homo sapiens, UniProt Q9H2G2); assay: KINOMEscan; details: read-out: Percent Control
# Description: as §1
# [12] = molecular target: TRPM6 (Homo sapiens, UniProt Q9BX84); assay: KINOMEscan; details: read-out: Percent Control
# Description: as §1
# [13] = molecular target: RSK4(Kin.Dom.1-N-terminal) (Homo sapiens, UniProt Q9UK32); assay: KINOMEscan; details: read-out: Percent Control
# Description: as §1
# [14] = molecular target: MARK1 (Homo sapiens, UniProt Q9P0L2); assay: KINOMEscan; details: read-out: Percent Control
# Description: as §1
# [15] = molecular target: TGFBR1 (Homo sapiens, UniProt P36897); assay: KINOMEscan; details: read-out: Percent Control
# Description: as §1
# [16] = molecular target: T3, PAK1 (Homo sapiens, UniProt Q13153); assay: PAK1 degradation in Panc1 cells, Western blot; assay type: cell-based; set-up: endogenous in cells; details: compared with BJG-05-014 and BJG-05-027
# Description: In vitro kinase assays were performed using recombinant PAK1 and PAK2, using a library of small molecule protein kinase inhibitors. […] FIG. 1C is a series of Western blots showing the degradation of PAK1 in Panc1 cells by the NVS-PAK1-1-based (allosteric) degraders BJG-05-014, BJG-05-027, and BJG-05-039. Quantification is shown below in the bar graph. FIG. 1D is a series of Western blots showing PAK1, PAK2, and GAPDH in Panc1 cells treated with the indicated amounts of the NVS-PAK1-1-based degrader BJG-05-039 and ATP-competitive degraders BJG-05-093, BJG-05-094, and BJG-05-095.
# BJG-05-014, BJG-05-027, and BJG-05-039 were tested in Panc1 cells for their ability to degrade PAK1.
# [17] = molecular target: T3, PAK1; assay: PAK1 degradation in MCF7 and OVCAR3 cells, immunoblot; assay type: cell-based; set-up: endogenous in cells; host or cells: MCF7, OVCAR3
# Description: Protein lysates were harvested at the times specified.
# Cell lysates were obtained by centrifugation at 13,500 rpm for 15 minutes at 4° C. BCA protein assay (Thermo Scientific) was used to determine protein concentration then equal amounts of total proteins were separated by SDS-PAGE (Bio-Rad) and transferred to PVDF membrane (Thermo Scientific) at 100V for 2 hours. Membranes were blocked in 5% (w/v) non-fat dry milk in tris-buffered saline with 0.1% Tween-20 (TBS-T) for 1 hour and incubated with primary antibody at 4° C. for overnight. Membranes were washed with TBS-T on the next day and incubated with HRP-conjugated secondary antibodies (Millipore) at room temperature for 1 hour and exposed to films after washing.
# T3 sequence (Q13153 whole entry): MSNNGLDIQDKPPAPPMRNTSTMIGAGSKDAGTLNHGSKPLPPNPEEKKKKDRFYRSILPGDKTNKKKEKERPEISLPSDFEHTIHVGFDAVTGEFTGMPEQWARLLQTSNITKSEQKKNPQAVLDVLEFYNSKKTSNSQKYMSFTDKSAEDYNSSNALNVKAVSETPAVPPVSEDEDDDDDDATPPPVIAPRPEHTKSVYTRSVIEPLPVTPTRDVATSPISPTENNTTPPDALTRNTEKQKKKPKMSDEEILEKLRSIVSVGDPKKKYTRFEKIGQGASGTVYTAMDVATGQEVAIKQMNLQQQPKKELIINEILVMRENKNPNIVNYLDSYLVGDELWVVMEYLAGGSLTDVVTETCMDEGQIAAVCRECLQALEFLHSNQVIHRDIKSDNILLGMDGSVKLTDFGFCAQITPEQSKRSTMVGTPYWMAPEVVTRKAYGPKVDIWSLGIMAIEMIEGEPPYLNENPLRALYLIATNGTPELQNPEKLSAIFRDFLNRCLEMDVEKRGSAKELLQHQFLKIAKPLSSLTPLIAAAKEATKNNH
# Sequence of NEK1 (Q96PY6 whole entry): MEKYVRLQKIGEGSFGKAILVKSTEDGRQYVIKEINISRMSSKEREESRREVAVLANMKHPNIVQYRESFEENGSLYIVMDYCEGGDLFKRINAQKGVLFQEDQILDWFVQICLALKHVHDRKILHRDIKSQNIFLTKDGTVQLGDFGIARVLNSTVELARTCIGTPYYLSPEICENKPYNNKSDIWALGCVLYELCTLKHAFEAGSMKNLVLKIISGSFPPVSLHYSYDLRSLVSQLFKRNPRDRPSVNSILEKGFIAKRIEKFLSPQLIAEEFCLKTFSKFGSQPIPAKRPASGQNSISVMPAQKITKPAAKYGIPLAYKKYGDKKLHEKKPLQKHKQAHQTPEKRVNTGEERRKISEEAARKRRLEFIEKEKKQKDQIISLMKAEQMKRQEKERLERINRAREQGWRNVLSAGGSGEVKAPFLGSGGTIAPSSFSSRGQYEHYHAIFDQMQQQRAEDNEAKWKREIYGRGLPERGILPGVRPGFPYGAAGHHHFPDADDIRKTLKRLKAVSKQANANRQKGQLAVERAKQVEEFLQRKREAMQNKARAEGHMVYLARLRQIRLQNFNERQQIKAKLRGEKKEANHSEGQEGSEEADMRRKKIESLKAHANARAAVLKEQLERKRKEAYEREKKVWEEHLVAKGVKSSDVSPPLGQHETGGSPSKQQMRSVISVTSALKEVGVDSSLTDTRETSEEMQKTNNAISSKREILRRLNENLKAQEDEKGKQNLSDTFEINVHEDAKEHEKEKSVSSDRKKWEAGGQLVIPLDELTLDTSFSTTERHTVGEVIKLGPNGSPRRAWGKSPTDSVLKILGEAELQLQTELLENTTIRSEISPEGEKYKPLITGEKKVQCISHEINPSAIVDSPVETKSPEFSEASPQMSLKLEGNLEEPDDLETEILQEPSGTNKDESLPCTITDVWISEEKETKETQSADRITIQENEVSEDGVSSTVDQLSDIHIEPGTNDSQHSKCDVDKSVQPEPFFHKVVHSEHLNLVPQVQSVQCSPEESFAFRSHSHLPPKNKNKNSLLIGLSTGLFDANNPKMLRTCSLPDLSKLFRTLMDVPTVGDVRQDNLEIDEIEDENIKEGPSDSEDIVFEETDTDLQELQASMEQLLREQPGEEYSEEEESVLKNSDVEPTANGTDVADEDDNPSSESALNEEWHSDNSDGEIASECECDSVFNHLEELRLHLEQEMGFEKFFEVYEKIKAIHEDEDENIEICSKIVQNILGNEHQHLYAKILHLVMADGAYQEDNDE
# Sequence of RSK4(Kin.Dom.1-N-terminal) (Q9UK32 73-330 limits assumed): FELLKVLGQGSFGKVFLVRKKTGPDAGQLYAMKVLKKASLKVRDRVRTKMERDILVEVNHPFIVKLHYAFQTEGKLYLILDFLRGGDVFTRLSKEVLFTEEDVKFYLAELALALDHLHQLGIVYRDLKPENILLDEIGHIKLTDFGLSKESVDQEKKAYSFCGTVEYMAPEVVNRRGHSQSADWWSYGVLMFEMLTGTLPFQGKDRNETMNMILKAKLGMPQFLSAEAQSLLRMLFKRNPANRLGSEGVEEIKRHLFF
# Sequence of MET (P08581 25-1390): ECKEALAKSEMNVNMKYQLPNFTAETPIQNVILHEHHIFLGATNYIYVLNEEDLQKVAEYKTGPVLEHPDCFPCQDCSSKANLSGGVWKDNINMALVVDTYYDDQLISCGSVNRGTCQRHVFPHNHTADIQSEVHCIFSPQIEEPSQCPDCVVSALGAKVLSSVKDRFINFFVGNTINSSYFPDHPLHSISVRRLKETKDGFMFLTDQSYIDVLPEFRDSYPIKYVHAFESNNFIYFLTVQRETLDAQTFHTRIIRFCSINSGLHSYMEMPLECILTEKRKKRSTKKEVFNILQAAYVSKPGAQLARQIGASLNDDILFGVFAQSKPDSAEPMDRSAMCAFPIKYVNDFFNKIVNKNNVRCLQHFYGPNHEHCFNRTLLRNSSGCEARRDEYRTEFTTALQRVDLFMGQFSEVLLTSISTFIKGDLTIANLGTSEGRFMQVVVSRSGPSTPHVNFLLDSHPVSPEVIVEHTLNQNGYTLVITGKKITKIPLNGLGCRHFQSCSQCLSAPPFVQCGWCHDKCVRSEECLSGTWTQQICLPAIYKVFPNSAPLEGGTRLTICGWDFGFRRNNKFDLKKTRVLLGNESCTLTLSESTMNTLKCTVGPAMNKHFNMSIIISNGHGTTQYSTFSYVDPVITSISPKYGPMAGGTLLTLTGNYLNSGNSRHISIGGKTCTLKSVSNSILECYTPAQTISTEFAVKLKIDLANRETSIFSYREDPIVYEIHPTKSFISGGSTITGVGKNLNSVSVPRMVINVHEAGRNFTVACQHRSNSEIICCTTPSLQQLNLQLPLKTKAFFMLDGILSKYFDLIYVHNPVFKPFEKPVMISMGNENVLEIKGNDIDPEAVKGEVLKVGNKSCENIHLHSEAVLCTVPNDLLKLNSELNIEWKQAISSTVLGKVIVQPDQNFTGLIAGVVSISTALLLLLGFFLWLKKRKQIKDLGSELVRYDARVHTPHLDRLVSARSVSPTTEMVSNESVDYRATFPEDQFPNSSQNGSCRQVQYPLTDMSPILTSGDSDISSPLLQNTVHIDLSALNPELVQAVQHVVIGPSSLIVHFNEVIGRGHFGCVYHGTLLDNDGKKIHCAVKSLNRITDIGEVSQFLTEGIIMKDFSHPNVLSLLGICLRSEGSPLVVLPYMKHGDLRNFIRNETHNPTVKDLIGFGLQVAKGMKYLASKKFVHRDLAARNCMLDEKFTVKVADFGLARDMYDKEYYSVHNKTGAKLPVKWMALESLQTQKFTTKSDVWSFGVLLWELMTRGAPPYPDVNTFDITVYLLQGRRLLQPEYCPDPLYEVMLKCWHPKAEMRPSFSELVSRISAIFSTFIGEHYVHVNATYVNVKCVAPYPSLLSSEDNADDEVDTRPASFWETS
# Sequence of SLK (Q9H2G2 whole entry): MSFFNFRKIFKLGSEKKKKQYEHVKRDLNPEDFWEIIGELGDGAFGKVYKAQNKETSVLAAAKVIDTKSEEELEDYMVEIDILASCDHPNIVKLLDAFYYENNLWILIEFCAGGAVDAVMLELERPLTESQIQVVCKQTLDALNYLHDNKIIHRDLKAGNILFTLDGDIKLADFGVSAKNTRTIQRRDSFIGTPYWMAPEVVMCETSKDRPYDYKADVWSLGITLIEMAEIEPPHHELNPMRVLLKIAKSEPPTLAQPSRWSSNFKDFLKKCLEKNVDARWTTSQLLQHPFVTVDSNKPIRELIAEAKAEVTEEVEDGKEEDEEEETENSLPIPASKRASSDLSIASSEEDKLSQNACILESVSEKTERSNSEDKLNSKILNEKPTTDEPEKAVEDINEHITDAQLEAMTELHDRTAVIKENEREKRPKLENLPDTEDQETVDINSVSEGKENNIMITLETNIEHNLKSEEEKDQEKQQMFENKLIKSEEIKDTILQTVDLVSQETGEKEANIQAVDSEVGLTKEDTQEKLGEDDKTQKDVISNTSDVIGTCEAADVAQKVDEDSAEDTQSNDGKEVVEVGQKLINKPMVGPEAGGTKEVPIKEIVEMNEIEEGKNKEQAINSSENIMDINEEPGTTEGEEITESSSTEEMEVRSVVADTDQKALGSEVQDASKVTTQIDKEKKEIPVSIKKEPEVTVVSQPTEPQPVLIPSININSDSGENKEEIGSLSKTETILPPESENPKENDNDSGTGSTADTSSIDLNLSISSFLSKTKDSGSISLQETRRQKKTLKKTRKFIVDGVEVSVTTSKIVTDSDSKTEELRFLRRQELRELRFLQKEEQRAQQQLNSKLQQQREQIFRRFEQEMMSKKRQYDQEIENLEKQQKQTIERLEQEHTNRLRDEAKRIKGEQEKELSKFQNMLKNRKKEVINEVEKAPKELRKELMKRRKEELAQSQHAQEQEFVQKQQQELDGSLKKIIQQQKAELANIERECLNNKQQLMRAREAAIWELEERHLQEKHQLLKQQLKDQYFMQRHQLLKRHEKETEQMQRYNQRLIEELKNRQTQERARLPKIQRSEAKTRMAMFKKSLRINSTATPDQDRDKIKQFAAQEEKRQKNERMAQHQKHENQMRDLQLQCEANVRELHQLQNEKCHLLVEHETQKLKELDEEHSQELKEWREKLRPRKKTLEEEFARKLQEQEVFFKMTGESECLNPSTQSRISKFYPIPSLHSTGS
# Sequence of MAPKAPK2 (P49137 whole entry): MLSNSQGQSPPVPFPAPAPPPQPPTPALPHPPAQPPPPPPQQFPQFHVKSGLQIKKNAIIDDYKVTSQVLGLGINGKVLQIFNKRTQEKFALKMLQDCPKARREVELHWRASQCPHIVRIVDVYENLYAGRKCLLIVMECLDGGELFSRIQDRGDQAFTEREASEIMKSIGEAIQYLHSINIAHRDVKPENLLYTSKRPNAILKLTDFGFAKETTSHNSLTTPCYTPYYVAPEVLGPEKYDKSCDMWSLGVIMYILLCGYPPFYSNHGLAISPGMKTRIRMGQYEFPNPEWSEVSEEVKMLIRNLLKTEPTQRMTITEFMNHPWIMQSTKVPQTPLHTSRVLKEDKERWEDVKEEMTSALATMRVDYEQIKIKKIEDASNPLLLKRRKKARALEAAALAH
structure (smiles),measurement,setting,value
"O=C1CCC(N2C(=O)c3cccc(NCCCCCCCCNC(=O)N4CC[C@H](NC5=Nc6cc(F)ccc6N(CC(F)F)c6ccc(Cl)cc65)C4)c3C2=O)C(=O)N1 (stereo partly drawn) [BJG-05-039, (3S)-3-((2-Chloro-5-(2,2-difluoroethyl)-8-fluoro-5H-dibenzo[b,e][1,4]diazepin-11-yl)amino)-N-(8-((2-(2,6-dioxopiperidin-3-yl)-1,3-dioxoisoindolin-4-yl)amino)octyl)pyrrolidine-1-carboxamide]",remaining binding at 10 µM,[1],82%
same,remaining binding at 10 µM,[2],100%
same,Phosphorylation of ERK,[3],inhibiting phosphorylation of ERK
same,remaining binding at 10 µM,[4],60%
same,remaining binding at 10 µM,[5],67%
same,remaining binding at 10 µM,[6],68%
same,remaining binding at 10 µM,[7],71%
same,remaining binding at 10 µM,[8],83%
same,remaining binding at 10 µM,[9],90%
same,remaining binding at 10 µM,[10],91%
same,remaining binding at 10 µM,[11],91%
same,remaining binding at 10 µM,[12],94%
same,remaining binding at 10 µM,[13],95%
same,remaining binding at 10 µM,[14],98%
same,remaining binding at 10 µM,[15],100%
same,Ability to degrade PAK1,[16],most promising profile
same,Reduction in PAK1 levels by immunoblot,[17]; FIG. 2A,~50%
same,PAK1 degradation,[17]; MCF7 and OVCAR3 cells,induced degradation of PAK1
same,Concentration of maximal PAK1 degradation,"[17]; MCF7 and OVCAR3 cells, 12 hour treatment",10 nM
same,Time to partial degradation of PAK1,"[17]; MCF7 cells, 250 nM, progressive loss out to 24 hours",≤ 4 h
same,PAK1 degradation on co-treatment,[17]; co-treatment with bortezomib or MLN4924,prevented PAK1 destabilization
same,PAK1 degradation at high concentration (hook effect),[17]; concentrations of 1 μM and greater,diminished PAK1 degradation was observed
